System: NFE2L1/TCF11/NRF1, SQSTM1/p62, LC3, NQO1 and HSPA1A/HSP70-1 protein levels
Assay: Immunoblot analysis in HEK293 cells
Assay type: cell-based, human
Conditions: for LC3-I protein level, Treatment geometric mean / LC3-II protein level, Treatment geometric mean / HSPA1A protein level, Treatment geometric mean / LC3-total protein level, Treatment geometric mean / NFE2L1 protein level, Treatment geometric mean / NQO1 protein level, Treatment geometric mean / SQSTM1 protein level, Treatment geometric mean: immunoblot quantification; for LC3-I protein level, Treatment geometric mean / LC3-II protein level, Treatment geometric mean / HSPA1A protein level, Treatment geometric mean / LC3-total protein level, Treatment geometric mean / NFE2L1 protein level, Treatment geometric mean / NQO1 protein level, Treatment geometric mean / SQSTM1 protein level, Treatment geometric mean / HSPA1A protein level, geometric mean of ratios / LC3-II protein level, geometric mean of ratios / LC3-total protein level, geometric mean of ratios / NFE2L1 protein level, geometric mean of ratios / NQO1 protein level, geometric mean of ratios / SQSTM1 protein level, geometric mean of ratios: Fig. 2B; for LC3-I protein level, Treatment geometric mean: control geometric mean = 0.24; for LC3-II protein level, Treatment geometric mean: control geometric mean = 0.73; for HSPA1A protein level, Treatment geometric mean / LC3-total protein level, Treatment geometric mean / NFE2L1 protein level, Treatment geometric mean / NQO1 protein level, Treatment geometric mean / SQSTM1 protein level, Treatment geometric mean: control geometric mean = 1; for HSPA1A protein level, geometric mean of ratios / LC3-II protein level, geometric mean of ratios / LC3-total protein level, geometric mean of ratios / NFE2L1 protein level, geometric mean of ratios / NQO1 protein level, geometric mean of ratios / SQSTM1 protein level, geometric mean of ratios: ratio paired t test, treatment vs control
Experimental: Fig. 2 (A) qPCRs of HEK293 cells treated with RUN compounds (7.5 μM) for 16 hours. The extracted RNA was reverse transcribed into cDNA and utilized for RT-qPCR (primers are listed in the SI, Table S1); the mRNA levels of RPLP0 were used for normalization. The experiment was performed in three biological replicates (n = 3). (B) Immunoblot analysis of proteins NFE2L1/TCF11/NRF1, SQSTM1/p62, LC3, NQO1 and HSPA1A/HSP70-1 in HEK293 cells after 16 h treatment with 7.5 μM RUN compounds. The protein levels were quantified by measuring the integrated fluorescence of the corresponding protein bands and normalized to the β-actin load. The full-length (F) and cleaved (C) forms of NFE2L1 were analyzed together. The experiment was performed in four biological replicates (n = 4) except for NFE2L1 (n = 3). (A and B) Results of RUN compounds were compared to the DMSO control using ratio paired t-tests corrected for multiple comparisons with Holm–Šídák's method (α = 0.05). *p < 0.05, **p < 0.01. Detailed results of the analysis are shown in SI Tables S5 and S6.
To confirm NFE2L1-controlled gene expression at the protein level, western blot analysis was performed. HEK293 cells were treated with selected RUN compounds for 16 hours, after which the protein levels were analyzed. […] Similar observations were made with SQSTM1 and LC3. As mentioned earlier, SQSTM1 directly binds to the LC3 region to facilitate the delivery of proteins for autophagic clearance.[62,64,65] Within cells, LC3 undergoes cleavage to form its cytosolic version, LC3-I, which is further converted into its membrane-bound form, LC3-II, which is anchored in autophagosomal membranes.[60,66] Consequently, both SQSTM1 and LC3 are widely regarded as markers of autophagy.[65] […] The increase in the LC3-II form indicates active autophagic processes. […]
HEK293 cells were treated with 7.5 µM RUN compounds for 16 h, then harvested and resuspended in lysis buffer [50 mM HEPES (pH 7.5), 5 mM EDTA, 150 mM NaCl, 2 mM ATP, and 1% Triton]. Cell lysates were subsequently centrifuged at 15,000 rpm and 4°C for 15 minutes, and then a protein concentration was determined using the Pierce BCA Protein Assay Kit (Thermo Fisher Scientific). Cell lysates were boiled for 5 min at 95 °C in a 6xSDS sample buffer [350 mM Tris-HCl (pH 6.8), 350 mM SDS, 30% (v/v) glycerol, 4% β-mercaptoethanol, 180 µM bromophenol blue]. Prepared samples (15 µg of proteins) were separated by SDS-PAGE (10, 12, or 16% Bis-Tris gels; 50 V for 5 min, then 200 V) and transferred onto a 0.45 µm nitrocellulose membrane (Bio-Rad). For LC3 level analysis, the 0.2 µm nitrocellulose membrane (Bio-Rad) was used. Membranes were blocked in Intercept® (TBS) Blocking Buffer (LI-COR Biosciences) for 1 h at room temperature and then incubated with primary antibodies in Intercept® (TBS) Blocking Buffer with 0.1% Tween-20 overnight at 4°C. Used primary antibodies: anti-NFE2L1/TCF11/SKN1/NRF1 monoclonal antibody (Cell Signalling; #8052; anti-NQO1 polyclonal antibody (Sigma-Aldrich; # HPA007308; 1:5.000), anti-LC3 antibody […]
(Sigma-Aldrich; #L8918), anti-p62/SQSTM antibody (Sigma-Aldrich; #P0067), anti-β-actin monoclonal antibody (Sigma-Aldrich; #A5441; 1:10.000). The resulting membranes were washed and incubated with near-infrared fluorophore-conjugated goat anti-mouse IRDye […]
COR Biosciences; #926-32211; 1:15.000) for 1 h at room temperature. Membranes were imaged using Odyssey® M NIR Imaging System (LI-COR Biosciences) and quantified using Image Studio software v. 6.0 (LI-COR Biosciences). The protein levels were quantified by measuring the integrated fluorescence of the corresponding protein bands and normalized to the β-actin loading control. Changes in protein levels after treatment with RUN compounds were analyzed using paired t-tests with correction for multiple comparisons using the Holm-Šídák method (α = 0.05) in GraphPad Prism (v 10.6.1).
2.7 Proteasome activity assay […]

[1] = HEK293, 7.5 μM, 16 h, versus DMSO

COc1ccc(/C=C2\CC(N)C/C(=C\c3ccc(OC)c(OC)c3)C2=O)cc1OC (centres unmarked) [RUN-81]
LC3-I protein level, Treatment geometric mean: 0.29
LC3-II protein level, Treatment geometric mean: 1.57
HSPA1A protein level, Treatment geometric mean: 3.49
LC3-total protein level, Treatment geometric mean: 1.88
NFE2L1 protein level, Treatment geometric mean: 6.78
NQO1 protein level, Treatment geometric mean: 3.12
SQSTM1 protein level, Treatment geometric mean: 3.55
HSPA1A protein level, geometric mean of ratios: 3.49
LC3-II protein level, geometric mean of ratios: 2.14
LC3-total protein level, geometric mean of ratios: 1.88
NFE2L1 protein level, geometric mean of ratios: 6.78
NQO1 protein level, geometric mean of ratios: 3.12
SQSTM1 protein level, geometric mean of ratios: 3.55

COc1ccc(/C=C2\CC(NC(=O)C3CCCC3)C/C(=C\c3ccc(OC)c(OC)c3)C2=O)cc1OC (centres unmarked) [RUN-89]
Total LC3 protein level [1]: significantly elevate
LC3-I protein level, Treatment geometric mean: 0.26
LC3-II protein level, Treatment geometric mean: 1.88
HSPA1A protein level, Treatment geometric mean: 4.38
LC3-total protein level, Treatment geometric mean: 2.16
NFE2L1 protein level, Treatment geometric mean: 13.41
NQO1 protein level, Treatment geometric mean: 3.31
SQSTM1 protein level, Treatment geometric mean: 4.74
HSPA1A protein level, geometric mean of ratios: 4.38
LC3-II protein level, geometric mean of ratios: 2.56
LC3-total protein level, geometric mean of ratios: 2.16
NFE2L1 protein level, geometric mean of ratios: 13.41
NQO1 protein level, geometric mean of ratios: 3.31

COc1ccc(/C=C2\CC(NC(=O)c3ccccn3)C/C(=C\c3ccc(OC)c(OC)c3)C2=O)cc1OC (centres unmarked) [RUN-94]
NQO1 protein level [1]: notably boosting
Total LC3 protein level [1]: significantly elevate
LC3-I protein level, Treatment geometric mean: 0.38
LC3-II protein level, Treatment geometric mean: 1.72
HSPA1A protein level, Treatment geometric mean: 3.12
LC3-total protein level, Treatment geometric mean: 2.14
NFE2L1 protein level, Treatment geometric mean: 14.37
NQO1 protein level, Treatment geometric mean: 4.16
SQSTM1 protein level, Treatment geometric mean: 5.55
HSPA1A protein level, geometric mean of ratios: 3.12
LC3-II protein level, geometric mean of ratios: 2.35
LC3-total protein level, geometric mean of ratios: 2.14
NFE2L1 protein level, geometric mean of ratios: 14.37
NQO1 protein level, geometric mean of ratios: 4.16
SQSTM1 protein level, geometric mean of ratios: 5.55

— PMC12606464, “Investigating NFE2L1 activators for targeted protein aggregate clearance: a follow-up study” (RSC Medicinal Chemistry, 2025)
